Data from patent publication US11203591B2, “Substituted 6-azabenzimidazole compounds” (Gilead Sciences, Inc., priority 2018, dated 2021).
pIC50: −log10 of the molar value.

target: human HPK1 (MAP4K1) (Homo sapiens (Human), UniProt Q92918); test: HPK1 IC50 Assay (TR-FRET peptide phosphorylation); type: biochemical; conditions: 0.15 nM HPK1, 10 μM ATP, 1 μM STK S1 peptide substrate; geometric mean
Procedure, shortened: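 Pre-activated, dually phosphorylated baculovirus-expressed HPK1 kinase domain (0.15 nM) preincubated 15 min with compound, then reacted 3 h at 25° C with 10 μM ATP and 1 μM STK S1 peptide in BES pH 7.0 buffer. Phosphopeptide read by TR-FRET (665/620 nm); four-parameter fit, geometric-mean IC50.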

Chain of human HPK1 (MAP4K1) (Q92918 17-274): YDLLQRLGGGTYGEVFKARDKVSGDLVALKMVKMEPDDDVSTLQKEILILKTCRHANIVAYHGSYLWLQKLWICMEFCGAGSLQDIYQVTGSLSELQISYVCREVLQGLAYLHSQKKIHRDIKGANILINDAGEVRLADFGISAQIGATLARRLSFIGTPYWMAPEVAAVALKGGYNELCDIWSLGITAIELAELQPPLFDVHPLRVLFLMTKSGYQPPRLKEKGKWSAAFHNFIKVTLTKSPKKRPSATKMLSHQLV

pIC50 | Molecule
10.22 | CCNC(=O)c1cc(Nc2nc(-c3cc4c(nc3F)C(C)(C)C(=O)N4[C@H]3C[C@@](C)(N4CCCCC4)C3)cc3ncn(C(C)C)c23)c(F)c(F)c1C [Example 271, N-ethyl-3,4-difluoro-5-((6-(5-fluoro-3,3-dimethyl-1-((1s,3s)-3-methyl-3-(piperidin-1-yl)cyclobutyl)-2-oxo-2,3-dihydro-1H-pyrrolo[3,2-b]pyridin-6-yl)-3-isopropyl-3H-imidazo[4,5-c]pyridin-4-yl)amino)-2-methylbenzamide]
10.00 | Cc1cc(F)c(Nc2nc(-c3ccc4c(c3)N([C@]3(C)C[C@H](N5CCCCC5)C3)C(=O)C4(C)C)cc3ncn(C(C)C)c23)cc1C(=O)NC1(C(F)F)CC1 [Example 295, N-(1-(difluoromethyl)cyclopropyl)-5-((6-(3,3-dimethyl-1-((1s,3s)-1-methyl-3-(piperidin-1-yl)cyclobutyl)-2-oxoindolin-6-yl)-3-isopropyl-3H-imidazo[4,5-c]pyridin-4-yl)amino)-4-fluoro-2-methylbenzamide]

Molecule | pIC50
N-(1-(difluoromethyl)cyclopropyl)-5-((6-(3,3-dimethyl-1-((1s,3s)-3-methyl-3-(piperidin-1-yl)cyclobutyl)-2-oxo-2,3-dihydro-1H-pyrrolo[3,2-b]pyridin-6-yl)-3-isopropyl-3H-imidazo[4,5-c]pyridin-4-yl)amino)-2,3,4-trifluorobenzamide [Example 280] | 10.30

same assay, conditions: recombinant HPK1 kinase domain 0.15 nM, 10 μM ATP, 1 μM STK S1 peptide; geometric mean of multiple experiments

pIC50 | Molecule
10.00 | Cc1c(C(=O)NC2(C(F)F)CC2)cc(Nc2nc(-c3cnc4c(c3)N([C@H]3C[C@@](C)(N5CCCCC5)C3)CC4(C)C)cc3ncn(C(C)C)c23)c(F)c1F [Example 214, N-(1-(Difluoromethyl)cyclopropyl)-5-((6-(3,3-dimethyl-1-((1s,3s)-3-methyl-3-(piperidin-1-yl)cyclobutyl)-2,3-dihydro-1H-pyrrolo[3,2-b]pyridin-6-yl)-3-isopropyl-3H-imidazo[4,5-c]pyridin-4-yl)amino)-3,4-difluoro-2-methylbenzamide]
9.70 | Cc1c(C(=O)NC2(C(F)F)CC2)cc(Nc2nc(-c3cnc4c(c3)N([C@H]3C[C@@](C)(N5C[C@H]6COC[C@H]6C5)C3)C(=O)C4(C)C)cc3ncn(C(C)C)c23)c(F)c1F [Example 189, N-(1-(Difluoromethyl)cyclopropyl)-5-((6-(3,3-dimethyl-1-((1S,3s)-3-methyl-3-((3 aR,6aS)-tetrahydro-1H-furo[3,4-c]pyrrol-5(3H)-yl)cyclobutyl)-2-oxo-2,3-dihydro-1H-pyrrolo[3,2-b]pyridin-6-yl)-3-isopropyl-3H-imidazo[4,5-c]pyridin-4-yl)amino)-3,4-difluoro-2-methylbenzamide]
10.10 | CCC(=O)N1CCC2(CC1)C(=O)N([C@H]1C[C@@H](N3CCCCC3)C1)c1cc(-c3cc4ncn(C(C)C)c4c(Nc4cc(C(=O)NC(C)C)c(C)cc4F)n3)ccc12 [Example 53]
9.70 | CNC(=O)c1cc(Nc2nc(-c3ccc4c(c3)N([C@H]3C[C@@H](N5CCCCC5)C3)C(=O)C43CCN(C(=O)C4(C)CC4)CC3)cc3ncn(C(C)C)c23)ccc1C [Example 152, 5-((3-isopropyl-6-(1′-(1-methylcyclopropane-1-carbonyl)-2-oxo-1-((1s,3s)-3-(piperidin-1-yl)cyclobutyl)spiro[indoline-3,4′-piperidin]-6-yl)-3H-imidazo[4,5-c]pyridin-4-yl)amino)-N,2-dimethylbenzamide]
9.70 | CNC(=O)c1cc(Nc2nc(-c3ccc4c(c3)N([C@H]3C[C@@H](N5CC(C)(C)C5)C3)C(=O)C4(C)C)cc3ncn(C(C)C)c23)c(F)cc1C [Example 120]
9.70 | Cc1c(F)c(Nc2nc(-c3cnc4c(c3)N([C@H]3C[C@@](C)(N5CCCCC5)C3)C(=O)C4(C)C)cc3ncn(C(C)C)c23)cc(C(=O)NC2(C(F)F)CC2)c1Cl [Example 264, 2-chloro-N-(1-(difluoromethyl)cyclopropyl)-5-((6-(3,3-dimethyl-1-((1s,3s)-3-methyl-3-(piperidin-1-yl)cyclobutyl)-2-oxo-2,3-dihydro-1H-pyrrolo[3,2-b]pyridin-6-yl)-3-isopropyl-3H-imidazo[4,5-c]pyridin-4-yl)amino)-4-fluoro-3-methylbenzamide]
10.00 | CC(C)n1cnc2cc(-c3cnc4c(c3)N(C3CC(C)(N5CCC6C[C@@H]6C5)C3)C(=O)C4(C)C)nc(Nc3cc(C(=O)NC4(C(F)F)CC4)c(Cl)c(F)c3F)c21 (stereo partly shown) [Example 262, 5-((6-(1-((1s,3s)-3-(3-azabicyclo[4.1.0]heptan-3-yl)-3-methylcyclobutyl)-3,3-dimethyl-2-oxo-2,3-dihydro-1H-pyrrolo[3,2-b]pyridin-6-yl)-3-isopropyl-3H-imidazo[4,5-c]pyridin-4-yl)amino)-2-chloro-N-(1-(difluoromethyl)cyclopropyl)-3,4-difluorobenzamide]
9.40 | CNC(=O)c1cc(Nc2nc(-c3ccc4c(c3)N([C@H]3C[C@@H](N5CCCCC5)C3)C(=O)C43CN(C(C)=O)C3)cc3ncn(C(C)C)c23)c(F)cc1C [Example 177]
10.22 | CC(C)n1cnc2cc(-c3cnc4c(c3)N([C@H]3C[C@@](C)(N5CCCCC5)C3)C(=O)C4(C)C)nc(Nc3cc(C(=O)NC4(C(F)F)CC4)ccc3F)c21 [Example 218, N-(1-(difluoromethyl)cyclopropyl)-3-((6-(3,3-dimethyl-1-((1s,3s)-3-methyl-3-(piperidin-1-yl)cyclobutyl)-2-oxo-2,3-dihydro-1H-pyrrolo[3,2-b]pyridin-6-yl)-3-isopropyl-3H-imidazo[4,5-c]pyridin-4-yl)amino)-4-fluorobenzamide]
10.05 | Cc1c(C(=O)NC(C)C)cc(Nc2nc(-c3cnc4c(c3)N([C@H]3C[C@@](C)(N5CCCCC5)C3)C(=O)C4(C)C)cc3ncn(C(C)C)c23)c(F)c1F [Example 220, 5-((6-(3,3-Dimethyl-1-((1s,3s)-3-methyl-3-(piperidin-1-yl)cyclobutyl)-2-oxo-2,3-dihydro-1H-pyrrolo[3,2-b]pyridin-6-yl)-3-isopropyl-3H-imidazo[4,5-c]pyridin-4-yl)amino)-3,4-difluoro-N-isopropyl-2-methylbenzamide]
9.70 | CC[C@H](C)NC(=O)c1cc(Nc2nc(-c3ccc4c(c3)N([C@H]3C[C@@H](N5CCCCC5)C3)C(=O)C43CCN(C(C)=O)CC3)cc3ncn(C(C)C)c23)c(F)cc1C [Example 88]
9.70 | CCNC(=O)c1cc(Nc2nc(-c3ccc4c(c3)N([C@H]3C[C@@H](N5CCCCC5)C3)C(=O)C43CCN(C(C)=O)CC3)cc3ncn(C(C)C)c23)c(F)cc1C [Example 74]
9.70 | CC(=O)N1CCC2(CC1)C(=O)N([C@H]1C[C@@H](N3CCCCC3)C1)c1cc(-c3cc4ncn(C(C)C)c4c(Nc4cc(C(=O)NCC(C)C)c(C)cc4F)n3)ccc12 [Example 75]
9.70 | CNC(=O)c1cc(Oc2nc(-c3ccc4c(c3)N([C@H]3C[C@@H](N5CCC(C)(C)C5)C3)C(=O)C43CCN(C(C)=O)CC3)cc3ncn(C(C)C)c23)ccc1C [Example 181]
10.15 | Cc1c(C(=O)NC2(C(F)F)CC2)cc(Nc2nc(-c3ccc4c(c3)N([C@H]3C[C@@H](N5CCCCC5)C3)C(=O)C4(C)C)cc3ncn(C(C)C)c23)c(F)c1F [Example 144]
10.10 | CCCNC(=O)c1cc(Nc2nc(-c3ccc4c(c3)N([C@H]3C[C@@H](N5CCCCC5)C3)C(=O)C4(C)C)cc3ncn(C(C)C)c23)ccc1C [Example 24]
9.70 | CC(=O)N1CCC2(CC1)C(=O)N([C@H]1C[C@@H](N3CCCCC3)C1)c1cc(-c3cc4ncn(C(C)C)c4c(Nc4cc(C(=O)NC(C)C)c(C)cc4F)n3)ccc12 [Example 129]
10.00 | CC(=O)N1CCC2(CC1)C(=O)N([C@H]1C[C@@H](N3CCCCC3)C1)c1cc(-c3cc4ncn(C(C)C)c4c(Nc4ccc(C)c(C(=O)NC(C)C)c4)n3)ccc12 [Example 83, 5-((6-(1′-acetyl-2-oxo-1-((1s,3s)-3-(piperidin-1-yl)cyclobutyl)spiro[indoline-3,4′-piperidin]-6-yl)-3-isopropyl-3H-imidazo[4,5-c]pyridin-4-yl)amino)-N-isopropyl-2-methylbenzamide]

Molecule | pIC50
CNC(=O)c1cc(Nc2nc(-c3ccc4c(c3)N(C3CC(N5CCC[C@H](C(F)F)C5)C3)C(=O)C4(C)C)cc3ncn(C(C)C)c23)ccc1C (stereo partly shown) [Example 105A, 5-((6-(1-((1s,3s)-3-(3-(difluoromethyl)piperidin-1-yl)cyclobutyl)-3,3-dimethyl-2-oxoindolin-6-yl)-3-isopropyl-3H-imidazo[4,5-c]pyridin-4-yl)amino)-N,2-dimethylbenzamide] | 9.70
Cc1ccc(Nc2nc(-c3ccc4c(c3)N([C@H]3C[C@@H](N5CCCCC5)C3)C(=O)C4(C)C)cc3ncn(C4CC4)c23)cc1C(N)=O [Example 112] | 10.05
CC(C)n1cnc2cc(-c3cnc4c(c3)N([C@H]3C[C@@](C)(N5CCCCC5)C3)C(=O)C4(C)C)nc(Nc3cc(C(=O)NC4(C(F)(F)F)CC4)c(Cl)c(F)c3F)c21 [Example 204, 2-Chloro-5-((6-(3,3-dimethyl-1-((1s,3s)-3-methyl-3-(piperidin-1-yl)cyclobutyl)-2-oxo-2,3-dihydro-1H-pyrrolo[3,2-b]pyridin-6-yl)-3-isopropyl-3H-imidazo[4,5-c]pyridin-4-yl)amino)-3,4-difluoro-N-(1-(trifluoromethyl)cyclopropyl)benzamide] | 9.70
Cc1c(C(=O)NC2(C(F)F)CC2)cc(Nc2nc(-c3cnc4c(c3)N(C3CC(C)(N5CCC6C[C@@H]6C5)C3)C(=O)C4(C)C)cc3ncn(C(C)C)c23)c(F)c1F (stereo partly shown) [Example 232, 5-((6-(1-((1s,3s)-3-(3-azabicyclo[4.1.0]heptan-3-yl)-3-methylcyclobutyl)-3,3-dimethyl-2-oxo-2,3-dihydro-1H-pyrrolo[3,2-b]pyridin-6-yl)-3-isopropyl-3H-imidazo[4,5-c]pyridin-4-yl)amino)-N-(1-(difluoromethyl)cyclopropyl)-3,4-difluoro-2-methylbenzamide] | 10.05
